According to PMC8160934, “Different Biological Activities of Histidine-Rich Peptides Are Favored by Variations in Their Design” (Toxins, 2021):
“Also recorded” adds a separate entry of the source.

Key:
[1] = system: HCT116 cells; experiment: Luciferase protein transduction; type: cell-based, human; conditions: HCT116, 2 µg recombinant luciferase with 10-32 µg peptide, 3 h in serum-free medium, mean of duplicates; result in words
Experimental: To perform a rapid screening of the protein transduction activities of the two series of peptides, we selected to deliver the luciferase protein from Photinus pyralis, which has a molecular weight (MW) of 62 kDa and an isoelectric point (pI) of 6.3. Indeed, the measurement of the activity of this enzyme is fast and very sensitive. […] Increasing amounts of peptides were added to a fixed amount of luciferase, and after 3 h of incubation with the human colon cancer cells HCT116, enzymatic activity was measured.
Figure 1 Transduction of the luciferase protein. HCT116 cells in 48-well plates were treated with 2 µg of recombinant luciferase (Rec. Luc) (per duplicate) in the presence or absence of LAH4 peptides (LAH4-Ln series in (A) and LAH4-An series in (B)). After 3 h of incubation in serum-free medium, cells were washed once with 1 mL/well of phosphate buffer saline (PBS), lysed, and the luciferase activity was determined. […] For each peptide, four conditions were tested: 10, 16, 24 and 32 µg of peptide/2 µg recombinant luciferase, except for LAH4 (16, 24 and 32 µg). Non-complexed recombinant luciferase was used as the control (black bar). The hydrophilic angles are shown in italics. […] It is uncertain whether it counts as a property result. The luciferase activities are shown only as bars, with no printed numbers, and are left out.
Protein complexes were generated using increasing peptide/protein w/w ratios.
Then, 0.25 mL of serum-free medium containing the peptide/protein complexes was transferred into each well. After an incubation time of 3 h at 37 °C the medium was removed, cells were washed once with 1 mL/well of PBS, and then 100 μL of lysis buffer was added per well. Luciferase activity and protein content were measured as described above.

[2] = system: E. coli bacteria (ATCC 25922); conditions: cited from earlier work
Experimental: Therefore, the antibacterial properties of both series of peptides were analyzed in Mueller–Hinton (MH) broth at pH 5 by determining the minimal inhibitory concentrations (MICs). […] Higher antimicrobial activity is observed when the angle increases. […] In contrast, for ...

[3] = system: E. coli bacteria (ATCC 25922); experiment: Broth microdilution antibacterial assay (MIC) in Mueller–Hinton broth, pH 5; type: cell-based; conditions: E. coli, Mueller–Hinton broth pH 5; x50 from Origin fits of the growth curves of Figure 3 (concentration range 100 µM to 0.52 µM); fit error given; * error estimated in the range of the 1.5-fold dilution steps
Experimental: Therefore, the antibacterial properties of both series of peptides were analyzed in Mueller–Hinton (MH) broth at pH 5 by determining the minimal inhibitory concentrations (MICs).
Figure 3 Bacterial growth as a function of peptide concentration for the LAH4-Ln (A) and the LAH4-An series (B). The average of two experimental data sets (each data point derived from triplicates under the same experiment conditions) covering the concentration range 100 µM to 0.52 µM are shown by the relative bacterial growth when compared to bacteria in the absence of peptide (=100%). To guide the eye, the data have been fitted with the function ymin + (ymax − ymin)/(1 + (x/xo)^p)^s using the OriginPro software. […] The assay was performed in Mueller–Hinton broth, pH 5.
A broth microdilution assay was used to determine the minimal inhibitory concentration (MIC). A peptide aliquot of 1 mg was first solubilized in 50% ethanol (10 mM) then diluted in H2O to get a 300 μM peptide stock solution.
For all the activity tests, E. coli bacteria (ATCC® 25922^TM, Thermo Fisher Scientific, Courtaboeuf, France) were used. Briefly, some colonies from E. coli spread on gelose were resuspended in Mueller–Hinton broth, pH 7.4. After incubation at 37 °C for about 6 h this preculture was diluted to OD550nm = 0.2 in MH at pH5 and allowed to grow to reach the exponential phase (OD550nm = 1–2). After two-step dilution in MH pH5, the working bacteria suspension corresponding to 1.10^5–2.10^5 colony-forming units (CFU)/mL was obtained.
The antimicrobial testing was carried out in 96-well microplates (sterile polystyrene untreated with F-bottom, Thermo Scientific Nunc A/S, Roskilde, Denmark). The first column of the plate contains the highest final concentration (Cf) of peptide to test (two experiments were done: the first one starting at Cf 100 μM and a second one starting at 30 μM). All samples were added to the first column of the plate and subsequently spread onto the plate by a 1.5-fold dilution series in 10 steps. The last columns correspond to the positive and negative control conditions, respectively. Finally, the bacterial working suspension was distributed (50 μL at 1.10^5–2.10^5 CFU/mL in MH1X at pH 5) to each well except for the negative control (MH1X at pH5). The final volume was 100 μL/well and the range of peptide concentrations tested was from 100 μM to 1.73 μM for the first experiment and from 30 μM to 0.52 μM for the second experiment. The microplates were incubated at 37 °C for 12 h before bacterial growth was assessed by measuring the OD600. The initial bacterial density for each experiment was checked by spreading 100 μL of the working bacterial suspension, diluted 1/100 and 1/500 in MH1X, pH 5 on MH agar plates. After overnight incubation at 37 °C, the CFU were counted and the CFU/mL were determined. The percentage of bacterial growth compared to the positive control allows one to determine the MIC. The MIC values represent the average of the lowest tested peptide concentration (from both experiments) where most (at least 80%) of the bacterial growth is inhibited.

[4] = system: VSV and GALVTR pseudotyped lentiviruses; conditions: cited from earlier work
[5] = in the transfection and other phosphate-containing buffers; cited from earlier work
[6] = system: U87 cells; experiment: DNA transfection with p-Luc plasmid, luciferase expression; conditions: 1.5 µg pDNA with 7.5-25 µg peptide, 2 h 30 min, read one day post-transfection, mean of duplicates, result in words
Experimental: In vitro cell transfection experiments were performed using the plasmid p-Luc (7.6 kb), which is an expression plasmid encoding the firefly luciferase gene under the control of the human cytomegalovirus (CMV) immediate–early promoter. In total, 55,000 U87 cells were plated in 48-well plates one day before the experiment was performed. For transfection, 0.25 mL of serum-free culture medium containing the DNA complexes was deposited into each well of the duplicate. After incubation for approximately 2 h 30 min at 37 °C the medium was replaced with a fresh one containing serum. Luciferase activity was measured as described below in the cell lysate one day after transfection.
Transfection complexes were prepared as follows: for a duplicate, 1.5 μg of plasmid DNA and the desired amount of peptide were each diluted into 25 μL of acetate buffer pH 5 and gently mixed. DNA complexes were generated using increasing peptide/DNA w/w ratios. After 20 min of incubation at room temperature, the mixture was diluted with culture medium to obtain a final volume of 0.5 mL.
For luciferase activity, cells were harvested in 100 μL of lysis buffer (8 mM MgCl2, 1 mM DTT, 1 mM EDTA, 0.6% Triton X-100, 15% glycerol, and 25 mM Tris-phosphate buffer pH 7.8). The cell lysate was then transferred into Eppendorf tubes and centrifuged for 7 min at 10,000× g to pellet debris. Luciferase light units were measured in a 96-well plate format with a Centro LB luminometer (Berthold) from an aliquot of the supernatant (2 μL) with 1 s integration after automatic injection of 50 μL assay buffer (lysis buffer without Triton X-100 but supplemented with 2 mM ATP) and 50 μL of a luciferin solution (167 μM in water). Luciferase background was subtracted from each value and the protein content of the transfected cells was measured by Bradford dye-binding using the BioRad protein assay (Bio-Rad). The transfection efficiency was expressed as light units/s/mg protein (light units measured over a period of 1 s, and the values were then normalized after measurement of the amount of protein present in each well). The reported values are the mean of duplicates. Error bars represent the standard deviation of the mean.
glioblastoma U87 cells. Increasing amounts of peptide were mixed with a constant amount of reporter
plasmid (1.5 µg per duplicate of pDNA) and the complexes were incubated for 2h 30min with the
cells plated in 48-well plates. The transfection medium was then removed and replaced with fresh
culture medium supplemented with 10% serum. Luciferase activity was measured one day post-
transfection. The transfection efficiency is expressed as light units/s/mg protein and the reported
values are the mean of duplicates. Error bars represent the standard deviation of the mean.

[7] = naturally occurring antimicrobial peptides; cited from earlier work
From the text: The pronounced antimicrobial activities of cationic amphipathic peptides including LAH4 sequences have been associated with the perforation of microbial membranes. Indeed, under conditions where the peptides align along the membrane surface, high concentrations of LAH4 peptides result in the lysis of lipid bilayers. It is therefore unexpected that antimicrobial activity is highest for large hydrophilic angles, i.e., in inverse correlation with calcein release (Table 2, Figure 5). However, some of the naturally occurring antimicrobial pept ...

[8] = system: HCT116 cells; experiment: Saporin delivery, MTS cell viability; type: cell-based, human; conditions: HCT116, 0.54 µg/triplicate non-complexed saporin, 2 h 30 min, MTS two days later; result in words
Experimental: Figure 2 Transduction of the plant toxin saporin. HCT116 cells plated in 96-well plates were treated with 0.54 µg/triplicate of saporin in the absence or presence of LAH4 peptides (LAH4-Ln series in (A) and LAH4-An series in (B)). […] Two days later, an MTS assay was performed. The cell viability efficiency is expressed relative to untreated cells (=100%). […] For each peptide 3 conditions were tested: 4.05, 5.4 and 8.1 µg of peptide/0.54 µg saporin. Untreated cells (=100%; purple bar) and non-complexed saporin (black bar) were used as the control. The hydrophilic angles are shown on top in italics. […] The cell viability values appear only as bars and are not printed, so none are given. […]
Cell metabolic activity was measured by using an MTS (3-(4,5-dimethylthiazol-2-yl)-5-(3-carboxymethoxyphenyl)-2-(4-sulfophenyl)-2H-tetrazolium) assay (CellTiter 96® AQ ueous One Solution Cell Proliferation Assay, Promega). […] Plates were read at 490 nm (reagent absorbance) and 680 nm (background) (SP200, Safas, Monaco). The results were expressed by the subtraction of background absorbance and the expression of viability relative to non-treated controls (considered as 100% viability).

Row | Substance | luciferase protein transduction efficiency (luciferase activity, light units/s/mg protein) [1] | MIC50 [3] | hydrophilic angle [7] | also measured
1 | H-KKALLALALHHLAHLALHLALALKKA-NH2 [LAH4] | the most efficient peptides |  |  | pH dependence of antimicrobial activity ([2]; E. coli, pH 5 compared to pH 7.5, result in words): considerably more pronounced at pH 5; MIC ([2]; reference peptide LAH4, E. coli): 8.8 µM
2 | H-KKALLHAALAHLLALAHHLLALLKKA-NH2 [LAH4-A4, isomer of LAH4, LAH4-An series, also named Vectofusin-1] |  | 6 µM |  | lentiviral transduction enhancement [4]: highly efficient; also recorded: enhances the transduction; formation of fibers [5]: formation of fibers
3 | H-KKALLHALLAHLAALLHALLAHLKKA-NH2 [LAH4-A5, isomer of LAH4, LAH4-An series] | the most efficient peptides | 5.3 µM |  | DNA transfection activity (luciferase activity) [6]: high levels of activity
4 | cecropin |  |  | 180 ° | 
5 | magainin 2 |  |  | 180 ° | 
6 | saporin |  |  |  | cell death induced by saporin alone [8]: low levels of cell death
